Laboratory results as given in PMC7765952, “N-(Hydroxyalkyl) Derivatives of tris(1H-indol-3-yl)methylium Salts as Promising Antibacterial Agents: Synthesis and Biological Evaluation” (Pharmaceuticals, 2020).

Tested on: S. aureus ATCC 700699
Assay: MIC by microdilution, S. aureus ATCC 700699
Format: cell-based, Staphylococcus aureus
Conditions: S. aureus ATCC 700699, resistant to levofloxacin
Method: (§1) Compounds were tested against Gram-positive and Gram-negative bacteria, including sensitive or drug resistant strains from American Type Culture Collection (ATCC), as well as resistant clinical isolates from the culture collection of the Laboratory for Control of Hospital Infections (Sechenov University, Moscow, Russia). Collection cultures of Gram-positive bacteria: Staphylococcus aureus ATCC 25923, Staphylococcus aureus ATCC 3798, Staphylococcus aureus ATCC 700,699 and clinical isolates of Gram-positive bacteria: Staphylococcus aureus 5, Staphylococcus aureus 10, Staphylococcus aureus 100 KS, Staphylococcus epidermidis 533, Enterococcus faecium 569 and collection cultures of Gram-negative bacteria: Escherichia coli ATCC 25922, Klebsiella pneumoniae ATCC 13883, Salmonella cholerasuis ATCC 14,028 were used.
(§2) For the cultivation of the strains, various nutrient media were used: Trypticase Soy Agar BBL for Staphylococcus sp., E. coli, K. pneumoniae, S. cholerasuis and Columbia Agar Base BBL for the cultivation of Enterococcus sp. Cultures grown on appropriate nutrient media at 35 °C for 1 day were used to set up experiments. For determination of the antibacterial action Mueller-Hinton (Acumedia, Baltimore, MD, USA) liquid medium was used. The minimum inhibitory concentrations (MIC) were determined by the microdilution method in 96 well sterile plates in a cation-adjusted Müller-Hinton medium in accordance with the requirements of the Institute of Clinical and Laboratory Standards (CLSI/NCCLS). MIC was defined as the minimum drug concentration that completely prevents the growth of the test organism.

SMILES	MIC
OCCCCCCn1cc([C+](c2cn(CCCCCCO)c3ccccc23)c2cn(CCCCCCO)c3ccccc23)c2ccccc21.[Cl-] [8e, tris(1-(6-hydroxyhexyl)-1H-indol-3-yl)methylium chloride]	active
OCCCCCn1cc([C+](c2cn(CCCCCO)c3ccccc23)c2cn(CCCCCO)c3ccccc23)c2ccccc21.[Cl-] [8d, tris(1-(5-Hydroxypentyl)-1H-indol-3-yl)methylium chloride]	active

Same assay, conditions: Staphylococcus aureus, ATCC700699; S. aureus ATCC 700699, resistant to levofloxacin; read-out: MIC

SMILES	MIC
OCCCCCCn1cc([C+](c2cn(CCCCCCO)c3ccccc23)c2cn(CCCCCCO)c3ccccc23)c2ccccc21.[Cl-] [8e, tris(1-(6-hydroxyhexyl)-1H-indol-3-yl)methylium chloride]	0.5 µg/mL
OCCCCCn1cc([C+](c2cn(CCCCCO)c3ccccc23)c2cn(CCCCCO)c3ccccc23)c2ccccc21.[Cl-] [8d, tris(1-(5-Hydroxypentyl)-1H-indol-3-yl)methylium chloride]	2 µg/mL

Tested on: P. aeruginosa ATCC 27853
Assay: MIC by microdilution, P. aeruginosa ATCC 27853
Format: cell-based
Conditions: Pseudomonas aeruginosa, ATCC27853; P. aeruginosa ATCC 27853; read-out: MIC
Method: as §2

SMILES	MIC
OCCCCCCn1cc([C+](c2cn(CCCCCCO)c3ccccc23)c2cn(CCCCCCO)c3ccccc23)c2ccccc21.[Cl-] [8e, tris(1-(6-hydroxyhexyl)-1H-indol-3-yl)methylium chloride]	> 64 µg/mL
OCCCCCn1cc([C+](c2cn(CCCCCO)c3ccccc23)c2cn(CCCCCO)c3ccccc23)c2ccccc21.[Cl-] [8d, tris(1-(5-Hydroxypentyl)-1H-indol-3-yl)methylium chloride]	> 64 µg/mL

Tested on: E. faecium 569
Assay: MIC by microdilution, E. faecium 569
Format: cell-based, Enterococcus faecium
Conditions: E. faecium 569, resistant to cefuroxime, clindamycin, gentamycin, vancomycin, doxycycline
Method: as §1, §2

SMILES	MIC
OCCCCCCn1cc([C+](c2cn(CCCCCCO)c3ccccc23)c2cn(CCCCCCO)c3ccccc23)c2ccccc21.[Cl-] [8e, tris(1-(6-hydroxyhexyl)-1H-indol-3-yl)methylium chloride]	>64 µg/mL

Same assay, conditions: Enterococcus faecium; E. faecium 569, resistant to cefuroxime, clindamycin, gentamycin, vancomycin, doxycycline; read-out: MIC

SMILES	MIC
OCCCCCCn1cc([C+](c2cn(CCCCCCO)c3ccccc23)c2cn(CCCCCCO)c3ccccc23)c2ccccc21.[Cl-] [8e, tris(1-(6-hydroxyhexyl)-1H-indol-3-yl)methylium chloride]	> 64 µg/mL
OCCCCCn1cc([C+](c2cn(CCCCCO)c3ccccc23)c2cn(CCCCCO)c3ccccc23)c2ccccc21.[Cl-] [8d, tris(1-(5-Hydroxypentyl)-1H-indol-3-yl)methylium chloride]	8 µg/mL

Tested on: E. coli ATCC 25922
Assay: MIC by microdilution, E. coli ATCC 25922
Format: cell-based, Escherichia coli
Conditions: E. coli ATCC 25922
Method: as §1, §2

SMILES	MIC
OCCCCCCn1cc([C+](c2cn(CCCCCCO)c3ccccc23)c2cn(CCCCCCO)c3ccccc23)c2ccccc21.[Cl-] [8e, tris(1-(6-hydroxyhexyl)-1H-indol-3-yl)methylium chloride]	moderate level of activity
OCCCCCn1cc([C+](c2cn(CCCCCO)c3ccccc23)c2cn(CCCCCO)c3ccccc23)c2ccccc21.[Cl-] [8d, tris(1-(5-Hydroxypentyl)-1H-indol-3-yl)methylium chloride]	moderate level of activity

Same assay, conditions: Escherichia coli, ATCC25922; E. coli ATCC 25922; read-out: MIC

SMILES	MIC
OCCCCCCn1cc([C+](c2cn(CCCCCCO)c3ccccc23)c2cn(CCCCCCO)c3ccccc23)c2ccccc21.[Cl-] [8e, tris(1-(6-hydroxyhexyl)-1H-indol-3-yl)methylium chloride]	8 µg/mL
OCCCCCn1cc([C+](c2cn(CCCCCO)c3ccccc23)c2cn(CCCCCO)c3ccccc23)c2ccccc21.[Cl-] [8d, tris(1-(5-Hydroxypentyl)-1H-indol-3-yl)methylium chloride]	8 µg/mL

Tested on: S. aureus ATCC 3798
Assay: MIC by microdilution, S. aureus ATCC 3798
Format: cell-based
Conditions: Staphylococcus aureus, ATCC3798; S. aureus ATCC 3798, multiresistant incl. ciprofloxacin, levofloxacin; read-out: MIC
Method: as §1, §2

SMILES	MIC
OCCCCCCn1cc([C+](c2cn(CCCCCCO)c3ccccc23)c2cn(CCCCCCO)c3ccccc23)c2ccccc21.[Cl-] [8e, tris(1-(6-hydroxyhexyl)-1H-indol-3-yl)methylium chloride]	0.5 µg/mL
OCCCCCn1cc([C+](c2cn(CCCCCO)c3ccccc23)c2cn(CCCCCO)c3ccccc23)c2ccccc21.[Cl-] [8d, tris(1-(5-Hydroxypentyl)-1H-indol-3-yl)methylium chloride]	2 µg/mL

Tested on: K. pneumoniae ATCC 13883
Assay: MIC by microdilution, K. pneumoniae ATCC 13883
Format: cell-based
Conditions: Klebsiella pneumoniae, ATCC13883; K. pneumoniae ATCC 13883; read-out: MIC
Method: as §1, §2

SMILES	MIC
OCCCCCCn1cc([C+](c2cn(CCCCCCO)c3ccccc23)c2cn(CCCCCCO)c3ccccc23)c2ccccc21.[Cl-] [8e, tris(1-(6-hydroxyhexyl)-1H-indol-3-yl)methylium chloride]	8 µg/mL
OCCCCCn1cc([C+](c2cn(CCCCCO)c3ccccc23)c2cn(CCCCCO)c3ccccc23)c2ccccc21.[Cl-] [8d, tris(1-(5-Hydroxypentyl)-1H-indol-3-yl)methylium chloride]	2 µg/mL

Tested on: S. aureus 5
Assay: MIC by microdilution, S. aureus 5
Format: cell-based
Conditions: Staphylococcus aureus; S. aureus 5, methicillin resistant (MRSA) clinical isolate; read-out: MIC
Method: as §1, §2

SMILES	MIC
OCCCCCCn1cc([C+](c2cn(CCCCCCO)c3ccccc23)c2cn(CCCCCCO)c3ccccc23)c2ccccc21.[Cl-] [8e, tris(1-(6-hydroxyhexyl)-1H-indol-3-yl)methylium chloride]	0.5 µg/mL
OCCCCCn1cc([C+](c2cn(CCCCCO)c3ccccc23)c2cn(CCCCCO)c3ccccc23)c2ccccc21.[Cl-] [8d, tris(1-(5-Hydroxypentyl)-1H-indol-3-yl)methylium chloride]	4 µg/mL

Tested on: S. cholerasuis ATCC 14028
Assay: MIC by microdilution, S. cholerasuis ATCC 14028
Format: cell-based
Conditions: Salmonella, ATCC14028; S. cholerasuis ATCC 14028; read-out: MIC
Method: as §1, §2

SMILES	MIC
OCCCCCCn1cc([C+](c2cn(CCCCCCO)c3ccccc23)c2cn(CCCCCCO)c3ccccc23)c2ccccc21.[Cl-] [8e, tris(1-(6-hydroxyhexyl)-1H-indol-3-yl)methylium chloride]	> 64 µg/mL
OCCCCCn1cc([C+](c2cn(CCCCCO)c3ccccc23)c2cn(CCCCCO)c3ccccc23)c2ccccc21.[Cl-] [8d, tris(1-(5-Hydroxypentyl)-1H-indol-3-yl)methylium chloride]	> 64 µg/mL

Tested on: S. aureus ATCC 25923
Assay: MIC by microdilution, S. aureus ATCC 25923
Format: cell-based
Conditions: Staphylococcus aureus, ATCC25923; S. aureus ATCC 25923, sensitive to all antibiotics; read-out: MIC
Method: as §1, §2

SMILES	MIC
OCCCCCCn1cc([C+](c2cn(CCCCCCO)c3ccccc23)c2cn(CCCCCCO)c3ccccc23)c2ccccc21.[Cl-] [8e, tris(1-(6-hydroxyhexyl)-1H-indol-3-yl)methylium chloride]	0.5 µg/mL
OCCCCCn1cc([C+](c2cn(CCCCCO)c3ccccc23)c2cn(CCCCCO)c3ccccc23)c2ccccc21.[Cl-] [8d, tris(1-(5-Hydroxypentyl)-1H-indol-3-yl)methylium chloride]	2 µg/mL

Tested on: not listed separately
Assay: Determination of lipophilicity, LogPow by HPLC method
Format: physicochemical
Conditions: experimental, pH 7.4
Source text: We used the partition coefficient as an indicator of lipophilicity. The partition coefficient (P) is defined as the ratio of the equilibrium solute concentrations in a two-phase system of immiscible solvents. The most common in practice is the octanol-water (Pow) system. The partition coefficient is usually represented as a decimal logarithm (LogPow). It can be measured in several ways. A most advanced, accurate, and less time-consuming is the HPLC method for determining Pow using high-performance liquid chromatography. HPLC is performed on an analytical column with a solid phase containing long hydrocarbon chains chemically bound to silica gel. The retention time on such a column (Rt) is directly related to the partition coefficient Pow. The most informative in our case was the partition coefficient at a physiological pH value of 7.4. It was at this pH that the main biological experiments with the studied substances were carried out, namely tests of antimicrobial activity and cytotoxicity. HPLC was performed on a Shimadzu LC-20AD system using Kromasil-100-5-C18 (Akzo-Nobel) column, 4.6 × 250 mm, 20 °C temperature, UV detection, mobile phase A—0.2% HCOONH4), mobile phase B-MeCN, (pH 7.4), fl-1 mL/min., loop 20 mkl. After calibration using substances with a known LogPow, it is possible to recalculate Rt to LogPow. For calibration, we used aniline (LogPow 0.9), p-chloroaniline (LogPow 1.8), diphenylamine (LogPow 3.4), triphenylamine (LogPow 5.7).

SMILES	LogPow
OCCCCCCn1cc([C+](c2cn(CCCCCCO)c3ccccc23)c2cn(CCCCCCO)c3ccccc23)c2ccccc21.[Cl-] [8e, tris(1-(6-hydroxyhexyl)-1H-indol-3-yl)methylium chloride]	5.4
OCCCCCn1cc([C+](c2cn(CCCCCO)c3ccccc23)c2cn(CCCCCO)c3ccccc23)c2ccccc21.[Cl-] [8d, tris(1-(5-Hydroxypentyl)-1H-indol-3-yl)methylium chloride]	4

Tested on: Gram-positive and Gram-negative bacteria
Assay: Antibacterial activity in vitro, strain panel in general
Format: cell-based
Conditions: general statement over the strain panel
Method: as §1, §2

SMILES	MIC (antibacterial activity, strains not specified)
OCCCCCCn1cc([C+](c2cn(CCCCCCO)c3ccccc23)c2cn(CCCCCCO)c3ccccc23)c2ccccc21.[Cl-] [8e, tris(1-(6-hydroxyhexyl)-1H-indol-3-yl)methylium chloride]	highly active against Gram-positive bacteria
OCCCCCn1cc([C+](c2cn(CCCCCO)c3ccccc23)c2cn(CCCCCO)c3ccccc23)c2ccccc21.[Cl-] [8d, tris(1-(5-Hydroxypentyl)-1H-indol-3-yl)methylium chloride]	highly active against Gram-positive bacteria

Same assay, conditions: general statement over the strain panel; read-out: MIC (antibacterial activity, strains not specified)

SMILES	MIC
OCCCCCCn1cc([C+](c2cn(CCCCCCO)c3ccccc23)c2cn(CCCCCCO)c3ccccc23)c2ccccc21.[Cl-] [8e, tris(1-(6-hydroxyhexyl)-1H-indol-3-yl)methylium chloride]	0.5 µg/mL

Tested on: S. aureus 100 KC
Assay: MIC by microdilution, S. aureus 100 KC
Format: cell-based
Conditions: Staphylococcus aureus; S. aureus 100 KC, methicillin resistant (MRSA) clinical isolate; read-out: MIC
Method: as §1, §2

SMILES	MIC
OCCCCCCn1cc([C+](c2cn(CCCCCCO)c3ccccc23)c2cn(CCCCCCO)c3ccccc23)c2ccccc21.[Cl-] [8e, tris(1-(6-hydroxyhexyl)-1H-indol-3-yl)methylium chloride]	0.5 µg/mL
OCCCCCn1cc([C+](c2cn(CCCCCO)c3ccccc23)c2cn(CCCCCO)c3ccccc23)c2ccccc21.[Cl-] [8d, tris(1-(5-Hydroxypentyl)-1H-indol-3-yl)methylium chloride]	2 µg/mL

Tested on: S. aureus 10
Assay: MIC by microdilution, S. aureus 10
Format: cell-based
Conditions: Staphylococcus aureus; clinical isolate S. aureus 10, sensitive to all antibiotics; read-out: MIC
Method: as §1, §2

SMILES	MIC
OCCCCCCn1cc([C+](c2cn(CCCCCCO)c3ccccc23)c2cn(CCCCCCO)c3ccccc23)c2ccccc21.[Cl-] [8e, tris(1-(6-hydroxyhexyl)-1H-indol-3-yl)methylium chloride]	0.5 µg/mL
OCCCCCn1cc([C+](c2cn(CCCCCO)c3ccccc23)c2cn(CCCCCO)c3ccccc23)c2ccccc21.[Cl-] [8d, tris(1-(5-Hydroxypentyl)-1H-indol-3-yl)methylium chloride]	1 µg/mL

Tested on: S. epidermidis 533
Assay: MIC by microdilution, S. epidermidis 533
Format: cell-based
Conditions: Staphylococcus epidermidis; S. epidermidis 533, resistant to gentamicin; read-out: MIC
Method: as §1, §2

SMILES	MIC
OCCCCCCn1cc([C+](c2cn(CCCCCCO)c3ccccc23)c2cn(CCCCCCO)c3ccccc23)c2ccccc21.[Cl-] [8e, tris(1-(6-hydroxyhexyl)-1H-indol-3-yl)methylium chloride]	0.5 µg/mL
OCCCCCn1cc([C+](c2cn(CCCCCO)c3ccccc23)c2cn(CCCCCO)c3ccccc23)c2ccccc21.[Cl-] [8d, tris(1-(5-Hydroxypentyl)-1H-indol-3-yl)methylium chloride]	1 µg/mL
